Experiments:
A549 [1] = assay: cells; details: Homo sapiens, A549, 48 h
Description: (§2) Antiproliferative activity against human A549 cells assessed as inhibition of cell growth measured after 48 hrs by MTT assay

[2] = (§1) Antiproliferative activity against mouse L929 cells assessed as inhibition of cell growth measured after 48 hrs by MTT assay; type: toxicity, cell-based; details: mouse, L929 cells
TE-1 = assay: cells; details: Homo sapiens, TE-1, 48 h
Description: Antiproliferative activity against human TE-1 cells assessed as inhibition of cell growth measured after 48 hrs by MTT assay

5637 = assay: cells; details: Homo sapiens, 5637, 48 h
Description: Antiproliferative activity against human 5637 cells assessed as inhibition of cell growth measured after 48 hrs by MTT assay

[3] = Selectivity index, ratio of IC50 for mouse L929 cells to IC50 for human A549 cells; type: toxicity; details: for selectivity ratio: L929 cells and A549 cells, read-out: Ratio IC50
A549 [4] = test system: A549
Description: as §2

L929 = assay: as §1; type: toxicity, cell-based; details: l929

Row | IC50 (A549 [1]) [nM] | IC50 (TE-1) [nM] | IC50 5637 [nM] | IC50 (A549 [4]) [nM] | Structure (SMILES) | IC50 at 48 h [2] [nM] | selectivity ratio [3] | Ratio IC50 [3] | IC50 (L929) [nM]
1 | 320 | 230 | 1650 | – | Cc1n(CC2OCCO2)c2c([n+]1C)C(=O)c1cc3ccccc3cc1C2=O | 79900 | – | – | –
2 | 450 | 420 | 750 | – | CC(C)n1c[n+](C)c2c1C(=O)c1cc3ccccc3cc1C2=O | 84000 | – | – | –
3 | 370 | 680 | 1360 | – | CCC(C)Cn1c2c([n+](C)c1C)C(=O)c1cc3ccccc3cc1C2=O (stereo unspecified) | 43500 | – | – | –
4 | 40 | – | – | – | Cn1c[n+](C)c2c1C(=O)c1cccc([N+](=O)[O-])c1C2=O | 17500 | 438 | – | –
5 | 260 | 180 | 520 | – | CCn1c[n+](CC)c2c1C(=O)c1cc3ccccc3cc1C2=O | 63900 | – | – | –
6 | 860 | 80 | 800 | – | COc1ccc(Cn2c[n+](C)c3c2C(=O)c2cc4ccccc4cc2C3=O)cc1 | 64400 | – | – | –
7 | 13600 | – | – | – | CCn1c[n+](CC)c2c(OC)ccc(OC)c21 | 95100 | 7 | – | –
8 | – | – | – | 30 | Cn1c[n+](C)c2c1C(=O)c1ccccc1C2=O.[I-] | – | – | 117 | 3520
9 | 210 | 80 | 460 | – | CCn1c2c([n+](C)c1C)C(=O)c1cc3ccccc3cc1C2=O | 23300 | – | – | –
10 | 640 | 250 | 1360 | – | Cc1n(Cc2ccc(F)cc2)c2c([n+]1C)C(=O)c1cc3ccccc3cc1C2=O | 76800 | – | – | –
11 | 490 | 110 | 410 | – | C[n+]1cn(Cc2ccccc2)c2c1C(=O)c1cc3ccccc3cc1C2=O | 37100 | – | – | –
12 | 4500 | 910 | 1050 | – | COCC[n+]1c2c(n(Cc3cnccn3)c1C)C(=O)c1cc3ccccc3cc1C2=O | 141000 | – | – | –
13 | 380 | 190 | 470 | – | C[n+]1cn(Cc2ccccc2F)c2c1C(=O)c1cc3ccccc3cc1C2=O | 17700 | – | – | –
14 | 510 | – | – | – | CCCCn1c[n+](CCCC)c2c1C(=O)c1ccccc1C2=O | 6000 | 11.8 | – | –
15 | 5650 | 2330 | 2760 | – | CCC(C)n1c[n+](C)c2c1C(=O)c1cc3ccccc3cc1C2=O (stereo unspecified) | > 100000 | – | – | –
16 | 850 | – | – | – | Cn1c2c([n+](C)c1-c1ccccc1F)C(=O)c1cc3ccccc3cc1C2=O | 10700 | 13 | – | –
17 | 210 | 70 | 180 | – | COCCOCCn1c[n+](C)c2c1C(=O)c1cc3ccccc3cc1C2=O | > 100000 | – | – | –
18 | 60 | – | – | – | CCn1c[n+](CC)c2c1C(=O)c1ccccc1C2=O | 5200 | 86.7 | – | –
19 | 50 | 50 | 420 | – | Cc1n(C)c2c([n+]1C)C(=O)c1cc3ccccc3cc1C2=O | 15100 | 302 | – | –
20 | 670 | 59000 | 590 | – | CCCCn1c[n+](C)c2c1C(=O)c1cc3ccccc3cc1C2=O | 65100 | – | – | –

Row | IC50 (A549 [1]) [nM] | IC50 (TE-1) [nM] | IC50 5637 [nM] | IC50 (A549 [4]) [nM] | Structure (SMILES) | IC50 at 48 h [2] [nM] | selectivity ratio [3] | Ratio IC50 [3] | IC50 (L929) [nM]
21 | 80 | – | – | – | Cn1c2c([n+](C)c1C1CC1)C(=O)c1cc3ccccc3cc1C2=O | 15400 | 171 | – | –
22 | 160 | – | – | – | CCc1n(C)c2c([n+]1C)C(=O)c1ccccc1C2=O | 5600 | 35 | – | –
23 | 820 | – | – | – | O=C1c2ccccc2C(=O)c2c1n(Cc1ccccc1)c[n+]2Cc1ccccc1 | 39000 | 47.6 | – | –
24 | 76700 | – | – | – | O=C1c2ccccc2C(=O)c2c1n(-c1ccccc1)c[n+]2-c1ccccc1 | 66900 | 0.87 | – | –
25 | 460 | 550 | 530 | – | Cc1n(Cc2ccccc2F)c2c([n+]1C)C(=O)c1cc3ccccc3cc1C2=O | 12600 | – | – | –
26 | 31500 | – | – | – | Cn1c[n+](C)c2c(O)c3c(c(O)c21)C1C=CC3C1 (stereo unspecified) | 86000 | 2.7 | – | –
27 | 70 | 420 | 880 | – | CCn1c2c([n+](CC)c1C)C(=O)c1cc3ccccc3cc1C2=O | 33800 | – | – | –
28 | 220 | – | – | – | CCc1n(C)c2c([n+]1C)C(=O)c1cc3ccccc3cc1C2=O | 14600 | 66 | – | –
29 | 8400 | 700 | 1510 | – | CCC(C)Cn1c[n+](C)c2c1C(=O)c1cc3ccccc3cc1C2=O (stereo unspecified) | 83900 | – | – | –
30 | 630 | – | – | – | CC(C)n1c[n+](C(C)C)c2c1C(=O)c1ccccc1C2=O | 18600 | 29.5 | – | –
31 | 460 | 670 | 720 | – | Cc1n(CC#N)c2c([n+]1C)C(=O)c1cc3ccccc3cc1C2=O | 9570 | – | – | –
32 | 610 | – | – | – | COCCn1c[n+](CCOC)c2c1C(=O)c1ccccc1C2=O | 9900 | 16.2 | – | –
33 | – | – | – | 280 | Cc1ccc(S(=O)(=O)[O-])cc1.Cn1c[n+](C)c2c1C(=O)c1ccccc1C2=O | – | – | 1.9 | 540
34 | 1810 | 22000 | 1130 | – | CC(C)=CCn1c[n+](C)c2c1C(=O)c1cc3ccccc3cc1C2=O | 58700 | – | – | –
35 | 90 | 90 | 330 | – | CCCCn1c2c([n+](C)c1C)C(=O)c1cc3ccccc3cc1C2=O | 13600 | – | – | –
36 | 90 | – | – | – | Cn1c2c([n+](C)c1-c1ccco1)C(=O)c1cc3ccccc3cc1C2=O | 8900 | 99 | – | –
37 | 650 | – | – | – | CCCn1c[n+](CCC)c2c1C(=O)c1ccccc1C2=O | 9800 | 15.1 | – | –
38 | 250 | 390 | 1710 | – | C#CCn1c2c([n+](C)c1C)C(=O)c1cc3ccccc3cc1C2=O | 23800 | – | – | –
39 | 710 | 130 | 520 | – | C[n+]1cn(Cc2ccc(F)cc2)c2c1C(=O)c1cc3ccccc3cc1C2=O | 41100 | – | – | –
40 | – | – | – | 400 | CS(=O)(=O)[O-].Cn1c[n+](C)c2c1C(=O)c1ccccc1C2=O | – | – | 1.8 | 700

Row | IC50 (A549 [1]) [nM] | IC50 (TE-1) [nM] | IC50 5637 [nM] | IC50 (A549 [4]) [nM] | Structure (SMILES) | IC50 at 48 h [2] [nM] | selectivity ratio [3] | Ratio IC50 [3] | IC50 (L929) [nM]
41 | 1870 | 770 | 750 | – | CC(C)Cn1c[n+](C)c2c1C(=O)c1cc3ccccc3cc1C2=O | 87400 | – | – | –
42 | 880 | 520 | 780 | – | Cc1n(Cc2ccccc2)c2c([n+]1C)C(=O)c1cc3ccccc3cc1C2=O | 30600 | – | – | –
43 | 80 | – | – | – | Cn1c2c([n+](C)c1C1CC1)C(=O)c1ccccc1C2=O | 6200 | 78 | – | –
44 | – | – | – | 70 | Cn1c[n+](C)c2c1C(=O)c1ccccc1C2=O.O=S(=O)([O-])C(F)(F)F | – | – | 28.6 | 2000
45 | 910 | 270 | 550 | – | C[n+]1cn(Cc2cccc(F)c2)c2c1C(=O)c1cc3ccccc3cc1C2=O | 22800 | – | – | –
46 | 32100 | – | – | – | CC1=C(C)C(=O)c2c(n(C)c[n+]2C)C1=O | 119000 | 3.7 | – | –
47 | 240 | 80 | 100 | – | CCn1c[n+](C)c2c1C(=O)c1cc3ccccc3cc1C2=O | 49300 | – | – | –
48 | 680 | – | – | – | Cn1c2c([n+](C)c1-c1ccco1)C(=O)c1ccccc1C2=O | 7000 | 10 | – | –
49 | > 100000 | – | – | – | CCn1c[n+](CC)c2ccccc21 | > 200000 | < 10 | – | –
50 | 230 | 90 | 70 | – | COCCn1c2c([n+](C)c1C)C(=O)c1cc3ccccc3cc1C2=O | 11000 | – | – | –
51 | 60 | 70 | 400 | – | CC(C)=CCn1c2c([n+](C)c1C)C(=O)c1cc3ccccc3cc1C2=O | 5520 | – | – | –
52 | 1220 | 380 | 580 | – | CCCn1c2c([n+](C)c1C)C(=O)c1cc3ccccc3cc1C2=O | 22100 | – | – | –
53 | 390 | 160 | 890 | – | Cc1n(Cc2cccc(F)c2)c2c([n+]1C)C(=O)c1cc3ccccc3cc1C2=O | 45900 | – | – | –
54 | 90 | 150 | 60 | – | Cc1n(C(C)C)c2c([n+]1C)C(=O)c1cc3ccccc3cc1C2=O | 17900 | – | – | –
55 | 9300 | 910 | 1780 | – | CC(C)CCn1c[n+](C)c2c1C(=O)c1cc3ccccc3cc1C2=O | > 16400 | – | – | –
56 | 920 | – | – | – | Cn1c2c([n+](C)c1-c1ccccc1F)C(=O)c1ccccc1C2=O | 9200 | 10 | – | –
57 | 90 | – | – | – | Cc1n(C)c2c([n+]1C)C(=O)c1ccccc1C2=O | 2200 | 24 | – | –
58 | 60 | 80 | 410 | – | Cc1n(CC(C)C)c2c([n+]1C)C(=O)c1cc3ccccc3cc1C2=O | 15400 | – | – | –
59 | – | – | – | 170 | Cn1c[n+](C)c2c1C(=O)c1ccccc1C2=O.F[P-](F)(F)(F)(F)F | – | – | 10.6 | 1800

Source: ChEMBL document CHEMBL5375989, “Pioneering 4,11-Dioxo-4,11-dihydro-1H-anthra[2,3-d]imidazol-3-ium Compounds as Promising Survivin Inhibitors by Targeting ILF3/NF110 for Cancer Therapy” (J Med Chem, 2023)
